Measurements: patent publication US6462198B1, “Carbamic acid derivatives” (Hoffmann-La Roche Inc., priority 1999, dated 2002)
pIC50: −log10 of the molar value.

Columns and labels:
rat mGlu 1a receptor = molecular target: T1, rat mGlu 1a receptor (Rattus norvegicus, UniProt P23385); experiment: [Ca2+]i measurement (FLIPR) on mGlu 1a transfected EBNA cells; format: cell-based; settings: for agonist/antagonist: mode of action at group I mGlu receptor, [Ca2+]i FLIPR assay
T1 construct: expressed in transfected cells; host or cells: EBNA cells (transient transfection)

[1] = compounds acting as antagonists, tested against 10 μM glutamate as agonist

T1 sequence (P23385 19-1199): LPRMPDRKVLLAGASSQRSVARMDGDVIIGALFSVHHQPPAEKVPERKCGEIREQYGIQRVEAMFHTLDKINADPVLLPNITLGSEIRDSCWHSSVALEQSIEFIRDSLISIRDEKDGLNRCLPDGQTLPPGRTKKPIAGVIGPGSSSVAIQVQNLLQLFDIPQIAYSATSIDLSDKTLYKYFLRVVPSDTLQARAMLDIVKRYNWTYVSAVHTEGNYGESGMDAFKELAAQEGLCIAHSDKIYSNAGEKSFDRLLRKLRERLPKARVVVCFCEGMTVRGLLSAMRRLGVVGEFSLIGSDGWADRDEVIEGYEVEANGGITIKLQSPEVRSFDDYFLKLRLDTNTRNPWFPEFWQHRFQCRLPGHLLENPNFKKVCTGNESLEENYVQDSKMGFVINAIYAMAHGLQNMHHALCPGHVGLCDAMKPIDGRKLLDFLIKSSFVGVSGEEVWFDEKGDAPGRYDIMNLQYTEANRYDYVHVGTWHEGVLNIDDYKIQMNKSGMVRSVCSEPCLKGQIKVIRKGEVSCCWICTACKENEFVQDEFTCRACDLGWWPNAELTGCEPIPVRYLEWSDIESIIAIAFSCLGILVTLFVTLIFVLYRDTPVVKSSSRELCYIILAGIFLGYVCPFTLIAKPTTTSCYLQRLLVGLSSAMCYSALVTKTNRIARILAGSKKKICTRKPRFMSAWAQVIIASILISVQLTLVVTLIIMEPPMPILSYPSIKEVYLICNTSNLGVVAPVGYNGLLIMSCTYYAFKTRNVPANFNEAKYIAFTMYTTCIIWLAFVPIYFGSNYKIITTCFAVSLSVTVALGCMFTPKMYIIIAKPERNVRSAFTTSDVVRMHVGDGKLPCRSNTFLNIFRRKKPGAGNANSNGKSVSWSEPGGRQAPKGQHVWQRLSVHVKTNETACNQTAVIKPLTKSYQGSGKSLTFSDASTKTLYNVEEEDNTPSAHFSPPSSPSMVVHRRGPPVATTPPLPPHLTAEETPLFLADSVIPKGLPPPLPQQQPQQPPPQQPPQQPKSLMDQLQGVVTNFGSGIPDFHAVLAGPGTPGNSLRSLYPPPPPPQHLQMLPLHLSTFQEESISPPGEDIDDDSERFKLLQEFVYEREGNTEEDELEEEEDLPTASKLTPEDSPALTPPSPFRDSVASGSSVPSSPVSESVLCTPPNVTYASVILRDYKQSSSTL

| Compound | melting point | further results |
| --- | --- | --- |
| CCCCOC(=O)NC(=O)C(c1ccccc1)c1ccccc1 | 82 to 84 °C |  |
| CCOC(=O)NC(=O)C1c2ccccc2Sc2ccccc21 | 179 to 182 °C |  |
| O=C(NC(=O)C(c1ccccc1)c1ccccc1)OCCN1CCOCC1 | 135 to 137 °C |  |
| CCCCSC(=O)NC(=O)C(c1ccccc1)c1ccccc1 | 99 °C |  |
| CCOC(=O)NC(=O)C(c1cccc(C)c1)c1ncc(C(F)(F)F)cc1Cl (centres unmarked) | 146 to 147 °C |  |
| CCOC(=O)NC(=O)C1c2ccccc2Oc2c1cccc2C(F)(F)F (centres unmarked) | 196 to 198 °C |  |
| O=C(NC(=O)C(c1ccccc1)c1ccccc1)C1CC1 | 178 °C |  |
| CCCC(=O)NC(=O)C1c2ccccc2Oc2ccccc21 | 222 °C |  |
| CCCC(=O)NC(=O)C(c1ccccc1)c1ccccc1 | 205 °C |  |
| CC(C)(C)OC(=O)NC(=O)C(c1ccccc1)c1ccccc1 | 160 to 162 °C |  |
| CCOC(=O)NC(=O)C1c2ccccc2Oc2ccccc21 | 228 °C (dec.) |  |
| (2,2-Diphenyl-propionyl)-carbamic acid methyl ester [Example 23] |  | pIC50 (rat mGlu 1a receptor; [1]): 5.20; agonist/antagonist (rat mGlu 1a receptor): antagonist |

Further lines, with some results ahead:

| melting point | Compound | further results |
| --- | --- | --- |
| 203 °C | CCOC(=O)NC(=O)C1c2ccccc2Oc2ccc(Br)cc21 (racemic) |  |
| 118 to 120 °C | C=CCOC(=O)NC(=O)C(c1ccccc1)c1ccccc1 [Example 3, Diphenylacetyl-carbamic acid allyl ester] |  |
| 122 to 124 °C | CC(C)OC(=O)NC(=O)C(c1ccccc1)c1ccccc1 [Example 4, Diphenylacetyl-carbamic acid isopropyl ester] |  |
| 108 °C | O=C(NC(=O)C(c1ccccc1)c1ccccc1)OCC1CC1 [Example 10, Diphenylacetyl-carbamic acid cyclopropylmethyl ester] |  |
| 89 °C | C=CCOC(=O)NC(=O)C(C)(c1ccccc1)c1ccccc1 [Example 24, (2,2-Diphenyl-propionyl)-carbamic acid allyl ester] | pIC50 (rat mGlu 1a receptor; [1]): 5.55 |
| 83 °C | CCCCOC(=O)NC(=O)C(C)(c1ccccc1)c1ccccc1 [Example 25, (2,2-Diphenyl-propionyl)-carbamic acid butyl ester] | pIC50 (rat mGlu 1a receptor; [1]): 5.86 |
| 188 to 191 °C | O=C(Nc1ncco1)C1c2ccccc2Sc2ccccc21 [Example 31, 9H-Thioxanthene-9-carboxylic acid oxazol-2-ylamide] |  |
| 151 to 154 °C | CCCCOC(=O)NC(=O)C1c2ccccc2Sc2ccccc21 [Example 32, (9H-Thioxanthene-9-carbonyl)-carbamic acid butyl ester] | agonist/antagonist (rat mGlu 1a receptor): agonist |
| 83 °C | CCCCC(=O)NC(=O)C(c1ccccc1)c1ccccc1 [Example 43, Pentanoic acid diphenylacetyl-amide] |  |
| 114 to 115 °C | COCCc1nnc(NC(=O)C(c2ccccc2)c2ccccc2)o1 [Example 55, N-[5-(2-Methoxy-ethyl)-[1,3,4]oxadiazol-2-yl]-2,2-diphenyl-acetamide] |  |
| 159 to 160 °C | O=C(Nc1nnc(C2CC2)o1)C(c1ccccc1)c1ccccc1 [Example 57, N-(5-Cyclopropyl-[1,3,4]oxadiazol-2-yl)-2,2-diphenyl-acetamide] |  |
| 158 to 159 °C | O=C(Nc1nnc(CC2CC2)o1)C(c1ccccc1)c1ccccc1 [Example 59, N-(5-Cyclopropylmethyl-[1,3,4]oxadiazol-2-yl)-2,2-diphenyl-acetamide] |  |
| 148 to 149 °C | CCc1cnc(NC(=O)C(c2ccccc2)c2ccccc2)o1 [Example 63, N-(5-Ethyl-oxazol-2-yl)-2,2-diphenyl-acetamide] |  |
| 166 to 168 °C | Cc1cnc(NC(=O)C(c2ccccc2)c2ccccc2)o1 [Example 65, N-(5-Methyl-oxazol-2-yl)-2,2-diphenyl-acetamide] | pIC50 (rat mGlu 1a receptor; compounds acting as agonists, activation curve): 6.40; agonist/antagonist (rat mGlu 1a receptor): agonist |
